According to the supplement of paper PMC10331698:
± gives the standard deviation of the averaged measurements.

Key:
Assay in all cases: level (log10 ratio to DMSO vehicle control); higher = higher biomarker level / cell amount than vehicle control
Details in all cases: in DMSO
[1] = compound: CNS(=O)(=O)C(F)(F)C(F)(F)C(F)(F)C(F)(F)C(F)(F)C(F)(F)C(F)(F)C(F)(F)F [N-Methylperfluorooctanesulfonamide]
Protocol: (§1)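 BioMAP Diversity Plus panel of 12 human primary cell co-culture systems (3C, 4H, LPS, SAg, BT, BF4T, BE3C, CASM3C, HDF3CGF, KF3CT, MyoF, Mphg). Compounds were added 1 h before stimulation and left for 24 h (MyoF 48 h; BT 72 h for soluble read-outs or 6 d for IgG). Biomarkers were read by ELISA, cytotoxicity by SRB, PBMC viability and proliferation by Alamar Blue. Each well value was divided by the mean of 8 DMSO control wells on the same plate and log10 transformed; duplicate blinded samples were tested at 4 concentrations.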

[2] = compound: O=C(O)C(F)(F)C(F)(F)C(F)(F)C(F)(F)C(F)(F)C(F)(F)C(F)(F)C(F)(F)C(F)(F)C(F)(F)C(F)(F)C(F)(F)F [Perfluorotridecanoic acid]
Protocol: as §1

Perfluorohexanoic acid = compound: O=C(O)C(F)(F)C(F)(F)C(F)(F)C(F)(F)C(F)(F)F [Perfluorohexanoic acid]
Protocol: as §1

[3] = compound: O=C(O)CCC(F)(F)C(F)(F)C(F)(F)C(F)(F)C(F)(F)F [2H,2H,3H,3H-Perfluorooctanoic acid]
Protocol: as §1

[4] = compound: O=P(O)(O)CCC(F)(F)C(F)(F)C(F)(F)C(F)(F)C(F)(F)C(F)(F)C(F)(F)C(F)(F)F [((Perfluorooctyl)ethyl)phosphonic acid]
Protocol: as §1

1H,1H-Heptafluorobutanol = compound: OCC(F)(F)C(F)(F)C(F)(F)F [1H,1H-Heptafluorobutanol]
Protocol: as §1

Row | Test System | level (log10) ([1]; 6700 nM) | level (log10) ([1]; 20000 nM) | level (log10) ([1]; 60000 nM) | level (log10) ([2]; 1500 nM) | level (log10) ([2]; 4400 nM) | level (log10) ([2]; 13000 nM) | level (log10) ([2]; 40000 nM) | level (log10) (Perfluorohexanoic acid; 6700 nM) | level (log10) (Perfluorohexanoic acid; 20000 nM) | level (log10) (Perfluorohexanoic acid; 60000 nM) | level (log10) ([3]; 6700 nM) | level (log10) ([3]; 20000 nM) | level (log10) ([3]; 60000 nM) | level (log10) ([4]; 6700 nM) | level (log10) ([4]; 20000 nM) | level (log10) ([4]; 60000 nM) | level (log10) (1H,1H-Heptafluorobutanol; 6700 nM) | level (log10) (1H,1H-Heptafluorobutanol; 20000 nM) | level (log10) (1H,1H-Heptafluorobutanol; 60000 nM)
1 | BF4T:MMP-1 | 0.012 ± 0.02 | 0.0105 ± 0.015 | -0.0105 ± 0.044 | 0 ± 0.025 | -0.005 ± 0.0057 | -0.0015 ± 0.013 | 0.0045 ± 0.00071 | 0.0005 ± 0.015 | -0.009 ± 0.0071 | -0.0005 ± 0.0078 | -0.003 ± 0.0042 | 0.001 ± 0.023 | 0.005 ± 0.021 | -0.005 ± 0.0014 | 0.0075 ± 0.022 | 0.007 ± 0.05 | 0.002 ± 0.013 | 0.0085 ± 0.00071 | -0.002 ± 0.018
2 | BF4T:uPA | 0.0055 ± 0.0064 | 0.01 ± 0.014 | 0.0385 ± 0.028 | 0.0185 ± 0.018 | 0.011 ± 0.0042 | 0.0095 ± 0.0021 | 0.0155 ± 0.005 | 0.01 ± 0.0028 | 0.004 | 0.0105 ± 0.0078 | 0.0015 ± 0.015 | -0.003 ± 0.03 | -0.008 ± 0.013 | 0.008 ± 0.0085 | 0.0185 ± 0.018 | 0.0205 ± 0.057 | -0.002 ± 0.0071 | -0.019 ± 0.011 | -0.009 ± 0.011
3 | 3C:HLA-DR | -0.0605 ± 0.012 | -0.102 ± 0.016 | -0.072 ± 0.028 | -0.011 ± 0.0028 | -0.0135 ± 0.011 | -0.021 ± 0.02 | -0.0095 ± 0.011 | 0.002 ± 0.0042 | 0.004 ± 0.014 | -0.002 ± 0.0085 | -0.0085 ± 0.00071 | -0.019 ± 0.023 | -0.001 ± 0.0071 | 0.005 ± 0.0085 | 0.001 ± 0.0042 | -0.0285 ± 0.023 | -0.0025 ± 0.0021 | 0.0035 ± 0.012 | 0.005 ± 0.014
4 | SAg:CD62E/E-Selectin | -0.021 ± 0.0042 | -0.0475 ± 0.019 | -0.043 ± 0.0071 | 0.0065 ± 0.018 | -0.0015 ± 0.0064 | 0.012 ± 0.0057 | 0.006 ± 0.0014 | 0.001 ± 0.018 | -0.01 ± 0.023 | 0.0195 ± 0.005 | -0.01 ± 0.03 | 0.0015 ± 0.025 | 0.029 ± 0.016 | 0.0135 ± 0.0021 | 0.0275 ± 0.019 | -0.0155 ± 0.03 | 0.003 ± 0.013 | 0.01 ± 0.038 | 0.0125 ± 0.053
5 | BE3C:CXCL11/I-TAC | -0.03 ± 0.0099 | -0.0165 ± 0.018 | -0.043 ± 0.0028 | 0.007 ± 0.0014 | -0.048 ± 0.027 | -0.089 ± 0.021 | 0 ± 0.0085 | 0.008 ± 0.014 | 0.0065 ± 0.0064 | 0.027 ± 0.0042 | 0.0305 ± 0.016 | 0.0535 ± 0.012 | 0.036 ± 0.014 | -0.0285 ± 0.011 | -0.0225 ± 0.0064 | -0.0205 ± 0.0035 | 0.0065 ± 0.0035 | 0.0145 ± 0.023 | 0.0085 ± 0.023
6 | 3C:SRB | 0.0145 ± 0.022 | -0.031 ± 0.0028 | -0.0675 ± 0.028 | -0.017 ± 0.0085 | -0.0125 ± 0.0035 | -0.012 ± 0.016 | -0.0125 ± 0.028 | -0.0065 ± 0.0078 | -0.011 ± 0.0057 | -0.001 ± 0.0028 | -0.002 | -0.0085 ± 0.0078 | -0.009 ± 0.0085 | 0.01 ± 0.016 | 0.001 ± 0.016 | -0.078 ± 0.045 | -0.0095 ± 0.012 | 0.001 ± 0.0085 | -0.001 ± 0.0071
7 | SAg:SRB | -0.0095 ± 0.022 | -0.021 ± 0.02 | -0.0685 ± 0.036 | -0.0015 ± 0.011 | -0.0095 ± 0.0035 | -0.0045 ± 0.012 | -0.0335 ± 0.026 | -0.0055 ± 0.0035 | -0.0135 ± 0.0035 | -0.001 ± 0.0028 | -0.0065 ± 0.00071 | -0.0095 ± 0.0035 | -0.0025 ± 0.013 | -0.01 ± 0.021 | -0.042 ± 0.034 | -0.125 ± 0.044 | -0.0055 ± 0.011 | 0.0045 ± 0.0035 | 0.004 ± 0.0057
8 | SAg:CXCL8/IL-8 | -0.0435 ± 0.026 | -0.0395 ± 0.005 | -0.0275 ± 0.0035 | 0.018 ± 0.072 | -0.0025 ± 0.021 | -0.001 ± 0.0057 | 0.0035 ± 0.09 | -0.049 ± 0.052 | -0.009 ± 0.038 | 0.0035 ± 0.084 | -0.029 ± 0.079 | -0.0335 ± 0.039 | 0.0525 ± 0.018 | 0.022 ± 0.023 | 0.037 ± 0.03 | 0.052 ± 0.011 | 0.012 ± 0.0085 | -0.0055 ± 0.0021 | -0.0045 ± 0.1
9 | BT:sTNF-alpha | -0.017 ± 0.055 | 0.0015 ± 0.022 | -0.0905 ± 0.29 | 0.0475 ± 0.064 | 0.0075 ± 0.033 | -0.054 ± 0.096 | -0.05 ± 0.067 | -0.036 ± 0.05 | -0.023 ± 0.081 | -0.01 ± 0.11 | -0.0085 ± 0.0035 | -0.0055 ± 0.074 | 0.005 ± 0.037 | -0.019 ± 0.013 | -0.0175 ± 0.15 | -0.211 ± 0.39 | 0.078 ± 0.055 | 0.0915 ± 0.057 | 0.011 ± 0.083
10 | BT:sIL-6 | -0.0045 ± 0.04 | 0.003 ± 0.0042 | -0.083 ± 0.03 | 0.033 ± 0.086 | -0.0175 ± 0.026 | 0.011 ± 0.12 | -0.0485 ± 0.066 | -0.0375 ± 0.079 | 0.013 ± 0.062 | -0.037 ± 0.021 | 0.003 ± 0.011 | -0.0345 ± 0.013 | -0.0825 ± 0.032 | 0.045 ± 0.0014 | 0.0645 ± 0.035 | -0.019 ± 0.055 | 0.006 ± 0.044 | 0.049 ± 0.0071 | 0.0385 ± 0.043
11 | BF4T:Keratin 8/18 | -0.02 ± 0.0042 | -0.0185 ± 0.013 | 0.0135 ± 0.023 | 0.0145 ± 0.043 | -0.0005 ± 0.013 | -0.0105 ± 0.015 | 0.0135 ± 0.023 | 0.017 ± 0.028 | 0.0165 ± 0.015 | -0.006 ± 0.037 | -0.0015 ± 0.015 | -0.0055 ± 0.0021 | 0.005 ± 0.024 | -0.016 ± 0.017 | -0.0195 ± 0.005 | -0.0155 ± 0.042 | -0.036 ± 0.065 | -0.025 ± 0.037 | -0.019 ± 0.037
